The values below come from patent US20240132464A1, “HETEROCYCLIC COMPOUNDS AS E3 LIGASE INHIBITORS” (Accutar Biotechnology Inc., priority 2022, published 2024).

pIC50: −log10 of the molar value.

For the test, the target named is T1, GID4 (Uniprot ID: Q81VV7, residues 124-289) (Homo sapiens, UniProt Q8IVV7).
T1 construct: GID4 (Uniprot ID: Q81VV7, residues 124-289)
T1 sequence (Q8IVV7 124-289): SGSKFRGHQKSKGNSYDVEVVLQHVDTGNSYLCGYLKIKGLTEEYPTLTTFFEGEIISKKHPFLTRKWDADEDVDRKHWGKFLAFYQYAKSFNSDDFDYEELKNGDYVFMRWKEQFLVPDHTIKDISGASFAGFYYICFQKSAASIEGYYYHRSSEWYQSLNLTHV
In words: GID4 competitive binding assay (AlphaScreen, GID4/degron peptide PGLW). Conditions: 24 nM GID4, 48 nM biotinylated degron peptide PGLW, 4° C., read-out: IC50 (Inhibition of GID4/Degron binding by test compounds). On the procedure: GID4 Competitive Binding Assay
GID4 binding affinity of compounds disclosed herein was measured by monitoring the interaction of GID4 with its degron peptide (PGLW) in the presence of the test compounds. A truncated version of GID4 (Uniprot ID: Q81VV7, residues 124-289) with a 6*His at its C-terminus was used in this assay. Tetrapeptide, PGLW, was synthesized and tagged with an additional lysine labeled with biotin at its sidechain.
GID4 competitive binding assays were performed in a 384-well plate at 4° C. in a 20 μL reaction volume. Briefly, 24 nM GID4 (final concentration) proteins were pre-incubated with 48 nM biotinylated degron peptide (final concentration) in an assay buffer containing 20 mM HEPES, pH 7.5, 100 mM NaCl, 1 mM DTT, 0.1% Tween-20, and 0.05% BSA in the presence of the test compound in 2% DMSO (final concentration) at various concentrations for 2 h. 5 ug/ml Streptavidin ALphaScreen donor beads and 5 ug/ml nickel chelate (Ni-NTA) ALphaScreen acceptor beads (PerkinElmer, 6760619C) (final concentrations) were then added to the mixture. After an incubation of 1 h at 4° C., the fluorescent signals were obtained on the EnVision® 2105 Multilabel Plate Reader (PerkinElmer).
Raw ALphaScreen data were converted to a percentage of inhibition (relative to DMSO) using the following equations: […]
For a given test compound concentration X:
Signal (X)=Signal (GID4 & peptide & compound)−Signal (GID4 & buffer & compound)
Percentage of inhibition at concentration X=[1−Signal(X)/Signal (DMSO)]*100% b)
The IC50 values were determined by nonlinear regression of plots of [inhibitor] vs. percentage of inhibition with variable slope.
Table 3 summarizes the inhibition of binding between GID4 and degron peptide with compounds of the present disclosure. Compounds were ranked into bins as follows for IC50: A indicates <500 nM; B indicates 500 nM-5000 nM; C indicates >5000 nM.
On the technique in general: Bead proximity is the source of the signal in Alpha formats.
For `Nc1cc(N2CCOC(c3cnc4ccccn34)C2)nc(N)n1` (racemic) [Compound 136, (R/S)-6-(2-(imidazo[1,2-a]pyridin-3-yl)morpholino)pyrimidine-2,4-diamine], the pIC50 is under 5.30.
In the case of `CN1CCN(c2cc(N)nc(N)n2)C[C@@H]1c1ccccc1Br` (racemic) [Compound 144, (S/R)-6-(3-(2-bromophenyl)-4-methylpiperazin-1-yl)pyrimidine-2,4-diamine], the pIC50 is under 5.30.
For the molecule `Nc1cc(N2CCOC(c3ccccc3Br)C2)nc(N)n1` (racemic) [Compound 145, (R/S)-6-(2-(2-bromophenyl)morpholino)pyrimidine-2,4-diamine], the pIC50 is 5.30 to 6.30.
For `CC(C)c1cc(N2CCCC(c3cnc4ccccn34)C2)ncn1` (racemic) [Compound 148, (R/S)-3-(1-(6-isopropylpyrimidin-4-yl)piperidin-3-yl)imidazo[1,2-a]pyridine], the pIC50 is under 5.30.
Under `CC(C)c1cc(N2CCOC(c3cnc4ccccn34)C2)nc(N)n1` (racemic) [Compound 156, (R/S)-4-(2-(imidazo[1,2-a]pyridin-3-yl)morpholino)-6-isopropylpyrimidin-2-amine] stands under 5.30; under `CC(C)c1cc(N2CCOC(c3ccccc3Br)C2)nc(N)n1` (racemic) [Compound 158, (R/S)-4-(2-(2-bromophenyl)morpholino)-6-isopropylpyrimidin-2-amine], under 5.30; under `CC(C)c1cc(N2CCN(C)[C@@H](c3ccccc3Br)C2)nc(N)n1` (racemic) [Compound 161, (S/R)-4-(3-(2-bromophenyl)-4-methylpiperazin-1-yl)-6-isopropylpyrimidin-2-amine], 5.30 to 6.30.
Under `CC(C)c1cc(N2CC[C@@H](F)[C@@H](c3ncn4ccccc34)C2)nc(N)n1` (racemic) [Compound 229, 4-((3R,4R)-4-fluoro-3-(imidazo[1,5-a]pyridin-1-yl)piperidin-1-yl)-6-isopropylpyrimidin-2-amine] stands under 5.30; under `CC(C)c1cc(N2CCNC(c3cnc4ccccn34)C2)c2cc[nH]c2n1` (racemic) [Compound 371, (R/S)-3-(4-(6-isopropyl-1H-pyrrolo[2,3-b]pyridin-4-yl)piperazin-2-yl)imidazo[1,2-a]pyridine], over 6.30.
Take `Nc1cc(N2CC[C@H](O)[C@@H](c3ccccc3Br)C2)nc(N)n1` (relative stereo) [Compound 222, (3,4-trans)-3-(2-bromophenyl)-1-(2,6-diaminopyrimidin-4-yl)piperidin-4-ol]: the pIC50 is 5.30 to 6.30.
Under `CC(C)c1cc(N2CC[C@H](O)[C@@H](c3ccccc3Br)C2)nc(N)n1` (relative stereo) [Compound 223, (3,4-trans)-1-(2-amino-6-isopropylpyrimidin-4-yl)-3-(2-bromophenyl)piperidin-4-ol] stands 5.30 to 6.30; under `Cc1c(-c2ccc(Br)c(C3CN(c4cc(N)nc(N)n4)CCN3)c2)cnn1C` (single isomer, unassigned) [Compound 4, (R/S)-6-(3-(2-bromo-5-(1,5-dimethyl-1H-pyrazol-4-yl)phenyl)piperazin-1-yl)pyrimidine-2,4-diamine], 5.30 to 6.30.
Consider `Cc1c(-c2ccc(Br)c(C3CN(c4cc(C(C)C)nc(N)n4)CCN3)c2)cnn1C` (single isomer, unassigned) [Compound 6, R or S-4-(3-(2-bromo-5-(1,5-dimethyl-1H-pyrazol-4-yl)phenyl)piperazin-1-yl)-6-isopropylpyrimidin-2-amine], for which the pIC50 was over 6.30.
For the molecule `Cc1c(-c2ccc(Br)c(C3CN(c4cc(C(C)C)nc(N)n4)CCN3)c2)cnn1C` (single isomer, unassigned) [Compound 7, R or S-4-(3-(2-bromo-5-(1,5-dimethyl-1H-pyrazol-4-yl)phenyl)piperazin-1-yl)-6-isopropylpyrimidin-2-amine], the pIC50 is 5.30 to 6.30.
As for `Nc1cc(N2CCNC(c3cc(C(F)(F)F)ccc3Br)C2)nc(N)n1` (single isomer, unassigned) [Compound 11, (R/S)-6-(3-(2-bromo-5-(trifluoromethyl)phenyl)piperazin-1-yl)pyrimidine-2,4-diamine], the figure is 5.30 to 6.30.
Take `CC(C)c1cc(N2CCNC(c3cc(C(F)(F)F)ccc3Br)C2)nc(N)n1` (single isomer, unassigned) [Compound 13, (R/S)-4-(3-(2-bromo-5-(trifluoromethyl)phenyl)piperazin-1-yl)-6-isopropylpyrimidin-2-amine]: the pIC50 is over 6.30.
Under `CN1CCN(C(=O)c2ccc(Br)c(C3CN(c4cc(N)nc(N)n4)CCN3)c2)CC1` (single isomer, unassigned) [Compound 15, (R/S)-(4-bromo-3-(4-(2,6-diaminopyrimidin-4-yl)piperazin-2-yl)phenyl)(4-methylpiperazin-1-yl)methanone] stands over 6.30; under `CC(C)c1cc(N2CCNC(c3cc(C(=O)N4CCN(C)CC4)ccc3Br)C2)nc(N)n1` (single isomer, unassigned) [Compound 17, (R/S)-(3-(4-(2-amino-6-isopropylpyrimidin-4-yl)piperazin-2-yl)-4-bromophenyl)(4-methylpiperazin-1-yl)methanone], over 6.30; under `CC(C)c1cc(N2CCNC(c3cc(C(=O)N4CCN(C)CC4)ccc3Br)C2)nc(N)n1` (single isomer, unassigned) [Compound 18, (S/R)-(3-(4-(2-amino-6-isopropylpyrimidin-4-yl)piperazin-2-yl)-4-bromophenyl)(4-methylpiperazin-1-yl)methanone], 5.30 to 6.30.
Under `CC(C)c1cc(N2CCNC(c3cc(C(=O)NCCN(C)C)ccc3Br)C2)nc(N)n1` (single isomer, unassigned) [Compound 20, R or S-3-(4-(2-amino-6-isopropylpyrimidin-4-yl)piperazin-2-yl)-4-bromo-N-(2-(dimethylamino)ethyl)benzamide] stands 5.30 to 6.30; under `CCOc1ccc(Br)c(C2CN(c3cc(N)nc(N)n3)CCN2)c1` (single isomer, unassigned) [Compound 23, (R/S)-6-(3-(2-bromo-5-ethoxyphenyl)piperazin-1-yl)pyrimidine-2,4-diamine], 5.30 to 6.30.
As for `CCOc1ccc(Br)c(C2CN(c3cc(N)nc(N)n3)CCN2)c1` (single isomer, unassigned) [Compound 24, (S/R)-6-(3-(2-bromo-5-ethoxyphenyl)piperazin-1-yl)pyrimidine-2,4-diamine], the figure is over 6.30; as for `CCOc1ccc(Br)c(C2CN(c3cc(C(C)C)nc(N)n3)CCN2)c1` (single isomer, unassigned) [Compound 25, (R/S)-4-(3-(2-bromo-5-ethoxyphenyl)piperazin-1-yl)-6-isopropylpyrimidin-2-amine], over 6.30; as for `CCOc1ccc(Br)c(C2CN(c3cc(C(C)C)nc(N)n3)CCN2)c1` (single isomer, unassigned) [Compound 26, (S/R)-4-(3-(2-bromo-5-ethoxyphenyl)piperazin-1-yl)-6-isopropylpyrimidin-2-amine], 5.30 to 6.30.
Consider `CCc1cc(N2CCNC(c3cnc4ccccn34)C2)nc(N)n1` (single isomer, unassigned) [Compound 27, (R/S)-4-ethyl-6-(3-(imidazo[1,2-a]pyridin-3-yl)piperazin-1-yl)pyrimidin-2-amine], for which the pIC50 was under 5.30.
Under `CCc1cc(N2CCNC(c3cnc4ccccn34)C2)nc(N)n1` (single isomer, unassigned) [Compound 28, (S/R)-4-ethyl-6-(3-(imidazo[1,2-a]pyridin-3-yl)piperazin-1-yl)pyrimidin-2-amine] stands over 6.30.
As for `CC(C)c1cc(N2CCNC(c3cc(N4CC(CO)C4)ccc3Br)C2)nc(N)n1` (single isomer, unassigned) [Compound 30, (R/S)-(1-(3-(4-(2-amino-6-isopropylpyrimidin-4-yl)piperazin-2-yl)-4-bromophenyl)azetidin-3-yl)methanol], the figure is over 6.30; as for `CC(C)c1cc(N2CCNC(c3cc(N4CC(CO)C4)ccc3Br)C2)nc(N)n1` (single isomer, unassigned) [Compound 31, (S/R)-(1-(3-(4-(2-amino-6-isopropylpyrimidin-4-yl)piperazin-2-yl)-4-bromophenyl)azetidin-3-yl)methanol], 5.30 to 6.30.
In the case of `Brc1ccccc1C1CN(c2ccnc3[nH]cnc23)CCN1` (single isomer, unassigned) [Compound 35, (R/S)-7-(3-(2-bromophenyl)piperazin-1-yl)-3H-imidazo[4,5-b]pyridine], the pIC50 was 5.30 to 6.30.
